AC50 data for 23 molecules are collected here from ChEMBL document CHEMBL5291721, “A preclinical secondary pharmacology resource illuminates target-adverse drug reaction associations of marketed drugs” (Nat Commun, 2023).

Bounds are passed on as bounds.

In experiment [1] the target is Gamma-aminobutyric acid receptor subunit alpha-1/alpha-2/beta-2/gamma-2 (Homo sapiens, UniProt P14867+P18507+P47869+P47870). Format: functional, cell-based.
For experiment [2], the target named is 5-hydroxytryptamine receptor 2A (Homo sapiens, UniProt P28223). Type of experiment: functional, cell-based.
Sequence of 5-hydroxytryptamine receptor 2A (P28223 whole entry): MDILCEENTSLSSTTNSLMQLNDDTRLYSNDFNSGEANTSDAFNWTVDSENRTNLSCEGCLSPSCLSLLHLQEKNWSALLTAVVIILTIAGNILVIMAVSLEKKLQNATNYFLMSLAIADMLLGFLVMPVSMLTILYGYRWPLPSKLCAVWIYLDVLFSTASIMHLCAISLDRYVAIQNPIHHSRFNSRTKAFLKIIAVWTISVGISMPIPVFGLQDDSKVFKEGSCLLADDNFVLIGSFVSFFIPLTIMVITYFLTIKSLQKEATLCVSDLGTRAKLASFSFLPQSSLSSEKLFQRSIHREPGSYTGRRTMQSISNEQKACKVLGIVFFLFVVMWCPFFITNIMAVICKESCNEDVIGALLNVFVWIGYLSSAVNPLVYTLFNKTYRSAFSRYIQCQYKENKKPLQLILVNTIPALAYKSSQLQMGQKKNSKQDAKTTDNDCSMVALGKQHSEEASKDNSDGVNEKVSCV
Experiment [3] concerns the target T1, Peroxisome proliferator-activated receptor gamma (Homo sapiens, UniProt P37231).
T1 sequence (P37231 whole entry): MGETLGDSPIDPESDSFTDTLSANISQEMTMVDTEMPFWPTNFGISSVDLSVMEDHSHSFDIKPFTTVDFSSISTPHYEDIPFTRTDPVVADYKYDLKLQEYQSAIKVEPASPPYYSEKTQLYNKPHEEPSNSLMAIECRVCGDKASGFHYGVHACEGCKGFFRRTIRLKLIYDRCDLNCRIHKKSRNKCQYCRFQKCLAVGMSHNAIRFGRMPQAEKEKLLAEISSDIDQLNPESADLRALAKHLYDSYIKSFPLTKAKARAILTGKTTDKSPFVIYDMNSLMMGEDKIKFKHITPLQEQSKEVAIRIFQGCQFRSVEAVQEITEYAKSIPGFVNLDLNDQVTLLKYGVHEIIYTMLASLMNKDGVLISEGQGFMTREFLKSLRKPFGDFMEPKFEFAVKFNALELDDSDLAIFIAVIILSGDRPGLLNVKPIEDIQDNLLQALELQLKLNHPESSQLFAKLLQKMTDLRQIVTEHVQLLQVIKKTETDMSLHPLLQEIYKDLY
Type of experiment: functional.

Experiment [4] has as its target T2, Alpha-1A adrenergic receptor (Homo sapiens, UniProt P35348).
T2 sequence (P35348 whole entry): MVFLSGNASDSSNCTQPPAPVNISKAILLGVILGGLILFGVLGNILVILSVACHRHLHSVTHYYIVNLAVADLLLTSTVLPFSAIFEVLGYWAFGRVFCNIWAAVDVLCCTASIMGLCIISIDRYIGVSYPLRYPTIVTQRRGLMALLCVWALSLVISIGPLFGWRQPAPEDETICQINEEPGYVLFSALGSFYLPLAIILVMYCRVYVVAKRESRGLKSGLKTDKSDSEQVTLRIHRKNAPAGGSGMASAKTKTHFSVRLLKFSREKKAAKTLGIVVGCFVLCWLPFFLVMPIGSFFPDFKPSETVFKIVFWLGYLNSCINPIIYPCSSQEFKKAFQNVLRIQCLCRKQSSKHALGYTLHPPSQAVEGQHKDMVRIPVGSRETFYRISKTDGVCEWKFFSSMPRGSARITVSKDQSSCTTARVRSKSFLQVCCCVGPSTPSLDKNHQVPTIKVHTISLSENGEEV

A further experiment has as its target Melanocortin receptor 4 (Homo sapiens, UniProt P32245).
In experiment [5] the target is 5-hydroxytryptamine receptor 2B (Homo sapiens, UniProt P41595).
Sequence of 5-hydroxytryptamine receptor 2B (P41595 whole entry): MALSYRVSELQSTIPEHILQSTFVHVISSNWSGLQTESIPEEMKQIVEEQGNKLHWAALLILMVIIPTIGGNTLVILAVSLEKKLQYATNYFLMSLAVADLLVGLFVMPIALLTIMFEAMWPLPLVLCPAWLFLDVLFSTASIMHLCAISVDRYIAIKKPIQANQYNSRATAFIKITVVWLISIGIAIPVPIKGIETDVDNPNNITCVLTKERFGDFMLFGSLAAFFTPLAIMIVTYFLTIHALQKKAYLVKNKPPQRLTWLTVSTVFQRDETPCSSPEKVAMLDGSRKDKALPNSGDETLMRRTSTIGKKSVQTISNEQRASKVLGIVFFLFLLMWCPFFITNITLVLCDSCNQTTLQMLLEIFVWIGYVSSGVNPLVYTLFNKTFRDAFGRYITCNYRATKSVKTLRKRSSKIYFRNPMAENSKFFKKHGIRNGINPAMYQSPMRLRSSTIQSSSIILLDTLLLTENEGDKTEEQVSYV
The next experiment addresses Histamine H1 receptor (Homo sapiens, UniProt P35367). Type of experiment: functional, cell-based.
Experiment [6] addresses T3, Endothelin receptor type B (Homo sapiens, UniProt P24530).
T3 sequence (P24530 whole entry): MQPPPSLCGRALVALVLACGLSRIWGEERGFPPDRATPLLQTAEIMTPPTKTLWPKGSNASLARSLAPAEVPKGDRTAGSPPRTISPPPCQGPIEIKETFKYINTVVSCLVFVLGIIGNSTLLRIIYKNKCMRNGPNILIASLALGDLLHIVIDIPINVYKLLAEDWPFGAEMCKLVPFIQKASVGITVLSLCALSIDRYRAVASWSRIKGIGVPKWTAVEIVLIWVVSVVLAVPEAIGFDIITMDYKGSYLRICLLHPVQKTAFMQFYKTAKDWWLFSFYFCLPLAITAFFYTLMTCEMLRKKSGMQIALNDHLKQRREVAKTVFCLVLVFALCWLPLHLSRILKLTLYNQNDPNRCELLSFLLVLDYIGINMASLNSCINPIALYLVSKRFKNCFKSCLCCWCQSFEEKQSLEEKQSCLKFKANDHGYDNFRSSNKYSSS

For experiment [7], the target named is T4, Neuropeptide Y receptor type 2 (Homo sapiens, UniProt P49146).
T4 sequence (P49146 whole entry): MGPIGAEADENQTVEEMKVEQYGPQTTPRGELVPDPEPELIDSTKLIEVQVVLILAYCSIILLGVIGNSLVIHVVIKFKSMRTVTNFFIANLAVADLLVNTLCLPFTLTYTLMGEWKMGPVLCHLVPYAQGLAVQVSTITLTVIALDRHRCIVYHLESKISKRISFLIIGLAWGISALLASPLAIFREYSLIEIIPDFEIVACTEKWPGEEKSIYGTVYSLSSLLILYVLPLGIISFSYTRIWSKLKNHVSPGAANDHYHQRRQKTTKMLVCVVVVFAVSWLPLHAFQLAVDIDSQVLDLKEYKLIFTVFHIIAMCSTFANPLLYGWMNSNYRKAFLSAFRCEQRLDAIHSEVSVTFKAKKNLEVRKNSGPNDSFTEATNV

Experiment [8] deals with Neurotensin receptor type 1 (Homo sapiens, UniProt P30989).
Sequence of Neurotensin receptor type 1 (P30989 whole entry): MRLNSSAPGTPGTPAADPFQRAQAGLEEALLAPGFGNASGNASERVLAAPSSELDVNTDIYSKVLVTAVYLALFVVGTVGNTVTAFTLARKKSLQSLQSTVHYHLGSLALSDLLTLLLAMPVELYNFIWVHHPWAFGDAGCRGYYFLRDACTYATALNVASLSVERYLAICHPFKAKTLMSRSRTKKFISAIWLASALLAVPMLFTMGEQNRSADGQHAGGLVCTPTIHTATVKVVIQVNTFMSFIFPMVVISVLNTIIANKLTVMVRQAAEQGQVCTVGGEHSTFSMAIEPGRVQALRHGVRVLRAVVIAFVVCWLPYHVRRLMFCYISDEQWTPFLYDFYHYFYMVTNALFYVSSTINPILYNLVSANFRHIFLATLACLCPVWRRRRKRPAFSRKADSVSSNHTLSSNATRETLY
A further experiment addresses Histamine H2 receptor (Homo sapiens, UniProt P25021).
The target in a further experiment is T5, D(4) dopamine receptor (Homo sapiens, UniProt P21917).
T5 sequence (P21917 whole entry): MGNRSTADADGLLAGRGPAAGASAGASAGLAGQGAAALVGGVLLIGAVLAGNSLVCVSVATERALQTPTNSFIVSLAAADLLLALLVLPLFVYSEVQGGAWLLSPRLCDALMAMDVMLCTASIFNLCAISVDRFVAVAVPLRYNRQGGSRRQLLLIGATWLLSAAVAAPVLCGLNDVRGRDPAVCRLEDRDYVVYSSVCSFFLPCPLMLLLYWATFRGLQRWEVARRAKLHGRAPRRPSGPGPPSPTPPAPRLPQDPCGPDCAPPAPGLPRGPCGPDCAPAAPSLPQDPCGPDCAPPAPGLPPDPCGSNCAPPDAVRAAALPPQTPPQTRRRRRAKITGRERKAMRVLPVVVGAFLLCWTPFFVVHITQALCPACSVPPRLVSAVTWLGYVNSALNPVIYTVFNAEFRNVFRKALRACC

The target in experiment [9] is T2, Alpha-1A adrenergic receptor. The source holds these as a separate data set.
The target in experiment [10] is 5-hydroxytryptamine receptor 6 (Homo sapiens, UniProt P50406).
Sequence of 5-hydroxytryptamine receptor 6 (P50406 whole entry): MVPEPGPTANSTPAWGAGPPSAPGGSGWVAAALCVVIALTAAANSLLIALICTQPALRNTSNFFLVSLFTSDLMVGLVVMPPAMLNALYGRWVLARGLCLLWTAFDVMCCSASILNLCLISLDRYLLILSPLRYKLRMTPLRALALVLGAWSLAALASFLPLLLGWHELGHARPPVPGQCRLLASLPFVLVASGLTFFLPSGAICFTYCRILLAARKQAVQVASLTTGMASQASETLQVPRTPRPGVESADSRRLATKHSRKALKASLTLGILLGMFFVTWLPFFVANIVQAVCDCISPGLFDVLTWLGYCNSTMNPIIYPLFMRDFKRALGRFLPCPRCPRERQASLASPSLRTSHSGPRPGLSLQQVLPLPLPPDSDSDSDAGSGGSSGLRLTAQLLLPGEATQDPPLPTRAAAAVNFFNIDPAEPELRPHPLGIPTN
Note: assay procedure not described here.

Sequence of Histamine H1 receptor (P35367 whole entry): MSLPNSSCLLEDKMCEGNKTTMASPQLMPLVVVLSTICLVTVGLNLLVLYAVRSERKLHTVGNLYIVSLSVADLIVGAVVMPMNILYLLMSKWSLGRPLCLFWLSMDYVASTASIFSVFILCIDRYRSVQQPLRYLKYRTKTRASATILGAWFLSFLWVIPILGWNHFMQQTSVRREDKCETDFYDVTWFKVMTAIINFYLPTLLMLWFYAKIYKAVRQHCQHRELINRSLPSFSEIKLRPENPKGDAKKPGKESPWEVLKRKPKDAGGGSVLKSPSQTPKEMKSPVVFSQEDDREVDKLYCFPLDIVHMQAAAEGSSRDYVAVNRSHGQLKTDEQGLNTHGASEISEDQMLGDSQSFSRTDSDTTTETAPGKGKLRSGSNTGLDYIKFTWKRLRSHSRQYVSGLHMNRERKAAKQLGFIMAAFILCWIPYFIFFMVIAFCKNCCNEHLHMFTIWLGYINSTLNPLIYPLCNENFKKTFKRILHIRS
Sequence of Gamma-aminobutyric acid receptor subunit alpha-1/alpha-2/beta-2/gamma-2 (P14867 whole entry): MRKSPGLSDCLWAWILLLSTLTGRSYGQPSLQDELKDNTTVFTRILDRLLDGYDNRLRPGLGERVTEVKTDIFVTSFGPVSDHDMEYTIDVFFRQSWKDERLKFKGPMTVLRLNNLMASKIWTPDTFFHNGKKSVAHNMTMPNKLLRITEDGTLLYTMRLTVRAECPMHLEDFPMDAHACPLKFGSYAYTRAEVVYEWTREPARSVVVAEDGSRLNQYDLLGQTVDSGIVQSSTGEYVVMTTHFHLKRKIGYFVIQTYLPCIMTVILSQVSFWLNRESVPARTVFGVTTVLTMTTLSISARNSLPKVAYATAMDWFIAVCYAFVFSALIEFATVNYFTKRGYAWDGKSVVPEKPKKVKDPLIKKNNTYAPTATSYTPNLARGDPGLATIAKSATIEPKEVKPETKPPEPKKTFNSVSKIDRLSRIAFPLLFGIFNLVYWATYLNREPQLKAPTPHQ
Sequence of Gamma-aminobutyric acid receptor subunit alpha-1/alpha-2/beta-2/gamma-2 (P47870 whole entry): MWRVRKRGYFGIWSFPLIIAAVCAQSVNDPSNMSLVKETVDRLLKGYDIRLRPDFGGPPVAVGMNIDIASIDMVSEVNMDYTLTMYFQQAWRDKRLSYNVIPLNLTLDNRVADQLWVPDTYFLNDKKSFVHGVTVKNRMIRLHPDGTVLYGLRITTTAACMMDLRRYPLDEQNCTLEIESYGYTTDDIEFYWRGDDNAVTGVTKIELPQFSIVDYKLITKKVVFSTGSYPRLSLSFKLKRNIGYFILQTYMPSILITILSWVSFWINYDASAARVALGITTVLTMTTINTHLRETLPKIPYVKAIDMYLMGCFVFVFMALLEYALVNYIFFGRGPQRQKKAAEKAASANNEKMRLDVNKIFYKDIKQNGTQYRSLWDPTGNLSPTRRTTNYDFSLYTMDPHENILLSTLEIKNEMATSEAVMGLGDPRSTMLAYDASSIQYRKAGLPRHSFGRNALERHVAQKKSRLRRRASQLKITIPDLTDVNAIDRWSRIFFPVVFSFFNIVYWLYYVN
Sequence of Gamma-aminobutyric acid receptor subunit alpha-1/alpha-2/beta-2/gamma-2 (P18507 whole entry): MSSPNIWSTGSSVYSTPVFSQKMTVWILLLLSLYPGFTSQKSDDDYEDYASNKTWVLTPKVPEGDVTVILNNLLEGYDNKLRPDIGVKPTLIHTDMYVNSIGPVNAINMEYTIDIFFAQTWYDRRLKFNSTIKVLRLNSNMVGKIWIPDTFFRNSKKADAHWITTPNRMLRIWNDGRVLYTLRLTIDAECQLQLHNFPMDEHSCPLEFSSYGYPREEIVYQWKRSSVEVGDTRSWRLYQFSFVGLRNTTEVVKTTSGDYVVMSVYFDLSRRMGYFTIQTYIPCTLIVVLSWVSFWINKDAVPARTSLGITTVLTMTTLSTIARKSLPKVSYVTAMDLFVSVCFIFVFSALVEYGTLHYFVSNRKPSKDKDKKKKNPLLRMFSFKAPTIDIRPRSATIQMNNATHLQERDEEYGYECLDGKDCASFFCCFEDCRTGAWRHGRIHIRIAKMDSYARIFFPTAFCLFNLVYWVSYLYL
Sequence of Gamma-aminobutyric acid receptor subunit alpha-1/alpha-2/beta-2/gamma-2 (P47869 whole entry): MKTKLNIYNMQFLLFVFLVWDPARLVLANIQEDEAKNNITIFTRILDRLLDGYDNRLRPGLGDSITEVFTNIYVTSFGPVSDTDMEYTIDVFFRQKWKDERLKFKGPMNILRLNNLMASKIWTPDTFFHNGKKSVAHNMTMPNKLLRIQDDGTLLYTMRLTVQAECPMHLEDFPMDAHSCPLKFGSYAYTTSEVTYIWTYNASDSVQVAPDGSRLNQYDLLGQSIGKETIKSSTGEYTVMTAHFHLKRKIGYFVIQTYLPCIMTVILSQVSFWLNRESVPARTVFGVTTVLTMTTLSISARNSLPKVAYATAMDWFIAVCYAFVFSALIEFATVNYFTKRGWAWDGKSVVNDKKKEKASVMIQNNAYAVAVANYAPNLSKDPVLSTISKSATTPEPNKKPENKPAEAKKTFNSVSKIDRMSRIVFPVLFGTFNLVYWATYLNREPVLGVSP
Sequence of Histamine H2 receptor (P25021 whole entry): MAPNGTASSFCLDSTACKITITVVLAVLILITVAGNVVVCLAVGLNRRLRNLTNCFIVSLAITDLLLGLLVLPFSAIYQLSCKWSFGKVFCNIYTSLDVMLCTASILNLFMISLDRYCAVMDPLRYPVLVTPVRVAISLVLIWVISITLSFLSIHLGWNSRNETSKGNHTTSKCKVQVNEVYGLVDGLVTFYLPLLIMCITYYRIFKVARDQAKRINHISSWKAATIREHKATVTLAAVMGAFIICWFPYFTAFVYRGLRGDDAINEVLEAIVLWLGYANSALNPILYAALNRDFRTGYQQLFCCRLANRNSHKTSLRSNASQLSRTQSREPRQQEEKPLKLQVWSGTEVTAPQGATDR
Sequence of Melanocortin receptor 4 (P32245 whole entry): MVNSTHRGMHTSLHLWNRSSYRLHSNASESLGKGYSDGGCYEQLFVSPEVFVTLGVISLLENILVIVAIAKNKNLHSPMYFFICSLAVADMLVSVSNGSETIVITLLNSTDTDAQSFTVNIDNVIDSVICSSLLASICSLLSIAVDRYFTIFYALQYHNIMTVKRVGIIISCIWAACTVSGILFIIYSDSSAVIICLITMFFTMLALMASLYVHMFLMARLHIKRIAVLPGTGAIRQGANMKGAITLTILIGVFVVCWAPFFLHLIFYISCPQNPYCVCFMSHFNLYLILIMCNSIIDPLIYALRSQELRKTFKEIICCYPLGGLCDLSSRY

With `CC[C@@H](C(N)=O)N1CCCC1=O`, the AC50 in experiment [1], in [2] and in experiment [3] was > 30 µM in each case.
On to `CCC(CC)(CC(=O)Nc1cccc(/C=C/c2nc(C3CCC3)cs2)c1)C(=O)O`, for which, in experiment [3], the concentration at half-maximal activity (AC50) is > 30 µM.
In the case of `Nc1ccncc1N` [AMIFAMPRIDINE], the AC50 in experiment [4] is > 30 µM.
In the case of `CCCC1O[C@@H]2C[C@H]3[C@@H]4CCC5=CC(=O)C=C[C@]5(C)[C@H]4[C@@H](O)C[C@]3(C)[C@]2(C(=O)CO)O1` (some centres not stated) [BUDESONIDE], the half-maximal activity concentration (AC50) on Melanocortin receptor 4 is > 10 µM.
Turning to `C=CCN1C[C@H](C(=O)N(CCCN(C)C)C(=O)NCC)C[C@@H]2c3cccc4[nH]cc(c34)C[C@H]21` [CABERGOLINE], the AC50 in [1] is > 30 µM; in [2] it was 0.0626 µM; in [5], 0.0086 µM; on Melanocortin receptor 4, > 10 µM.
Turning to `NC1CCN(c2c(F)cc3c(=O)c(C(=O)O)cn(C4CC4)c3c2Cl)C1` (configuration not stated) [CLINAFLOXACIN], the AC50 in experiment [1] is > 300 µM.
For the molecule `CN1CCN(C2=Nc3ccccc3Sc3ccc(Cl)cc32)CC1` [CLOTHIAPINE], the AC50 was > 10 µM in experiment [1], 0.63 µM on Histamine H1 receptor and > 30 µM in experiment [2].
As for `CN(C)CCC=C1c2ccccc2C=Cc2ccccc21` [CYCLOBENZAPRINE], the AC50 (in experiment [6]; at Melanocortin receptor 4; in [7]; in [8]) was > 30 µM each time.
With `CCOc1ccc(Cc2cc([C@@H]3O[C@H](CO)[C@@H](O)[C@H](O)[C@H]3O)ccc2Cl)cc1` [DAPAGLIFLOZIN], the AC50 is > 10 µM at Histamine H2 receptor, > 10 µM in experiment [5] and > 30 µM at Melanocortin receptor 4.
As to `CN(C)CC/C=C1\c2ccccc2CSc2ccccc21` [DOTHIEPIN], the AC50 in [2] was > 30 µM.
On to `CC[C@H]1CN2CCc3cc(OC)c(OC)cc3[C@@H]2C[C@@H]1C[C@H]1NCCc2cc(OC)c(OC)cc21` [EMETINE], for which the AC50 in experiment [4] was 2.51 µM; in experiment [1], > 30 µM; in [3] it was > 30 µM.
For the molecule `COc1ccc(C(=O)Nc2ccccc2CCC2CCCCN2C)cc1` (configuration not stated) [ENCAINIDE], the half-maximal activity concentration (AC50) at D(4) dopamine receptor is > 10 µM; in experiment [6], > 30 µM; at Histamine H1 receptor it was > 30 µM; at Histamine H2 receptor, 16.2 µM; in experiment [2], > 30 µM; in experiment [5] it was 3.66 µM. The AC50 was > 30 µM at Melanocortin receptor 4, > 30 µM in experiment [7], > 30 µM in experiment [8] and > 10 µM in experiment [9].
Regarding `O=[N+]([O-])O[C@@H]1CO[C@H]2[C@@H]1OC[C@@H]2O` [ISOSORBIDE MONONITRATE], the AC50 is > 10 µM on D(4) dopamine receptor; > 30 µM in experiment [6]; > 10 µM on Histamine H2 receptor; > 10 µM in experiment [5]; > 30 µM at Melanocortin receptor 4; > 30 µM in experiment [7]. Besides, the values for the AC50 in experiment [8] and in [9] were > 30 µM and > 10 µM, respectively.
On to `Cc1cc(C)c(NC(=O)CN(CC(=O)O)CC(=O)O)c(C)c1Br` [MEBROFENIN], for which the half-maximal activity concentration (AC50) in [4], in [1] and in experiment [2] was > 30 µM each time.
As for `COc1ccccc1N1CCN(CC(O)COc2cccc3ccccc23)CC1` (configuration not stated) [NAFTOPIDIL], the AC50 in experiment [4] was 0.02 µM; in experiment [2], > 30 µM; in experiment [5], 0.047 µM.
Consider `COc1cc2nc(N3CCN(C(=O)c4ccco4)CC3)nc(N)c2cc1OC` [PRAZOSIN], for which the AC50 is > 10 µM on D(4) dopamine receptor; > 30 µM in experiment [6]; 2.57 µM in [5]; > 30 µM on Melanocortin receptor 4; > 30 µM in [7]; > 30 µM in experiment [8].
As to `O=[N+]([O-])c1cn2c(n1)OC[C@@H](OCc1ccc(OC(F)(F)F)cc1)C2` [PRETOMANID], the half-maximal activity concentration (AC50) in experiment [6] is > 30 µM; at Histamine H2 receptor, > 10 µM; in [5] it was > 10 µM; in experiment [10], > 10 µM; at Melanocortin receptor 4 it was > 30 µM; in experiment [7] it was > 30 µM. Moreover, the half-maximal activity concentration (AC50) in experiment [8] and in experiment [9] was > 10 µM each time.
Turning to `Cc1oc(=O)oc1CN1CCN(c2cc3c(cc2F)c(=O)c(C(=O)O)c2n3C(C)S2)CC1` (configuration not stated) [PRULIFLOXACIN], the AC50 in [4], in experiment [1] and in experiment [2] was > 30 µM each time.
With `CCCCCNC(=N)N/N=C/c1c[nH]c2ccc(OC)cc12` [TEGASEROD], the AC50 was 0.657 µM on D(4) dopamine receptor; > 30 µM in experiment [6]; > 30 µM in experiment [2]; 0.0206 µM in experiment [5]; 0.198 µM in [10]; 5.34 µM on Melanocortin receptor 4. For the same molecule, the concentration at half-maximal activity (AC50) in experiment [7] was > 30 µM; in experiment [8], > 30 µM; in [3], > 30 µM; in experiment [9] it was 0.267 µM.
As for `COC1=C(OC)C(=O)C(C/C=C(\C)CC/C=C(\C)CC/C=C(\C)CC/C=C(\C)CC/C=C(\C)CC/C=C(\C)CC/C=C(\C)CC/C=C(\C)CC/C=C(\C)CCC=C(C)C)=C(C)C1=O` [UBIDECARENONE], the AC50 in experiment [1] and in experiment [2] was > 30 µM in each case.
Take `C=CCCCCCCCCC(=O)O` [UNDECYLENIC ACID]: in experiment [4], the AC50 was > 30 µM.
Regarding `CCOc1ccccc1OCC1CNCCO1` (configuration not stated) [VILOXAZINE], the AC50 at D(4) dopamine receptor was > 10 µM; in experiment [6] it was > 30 µM; on Histamine H1 receptor, > 30 µM; on Histamine H2 receptor it was > 10 µM; in experiment [5] it was 2.34 µM; in [10], > 10 µM. For the same molecule, the AC50 on Melanocortin receptor 4 is > 30 µM; in experiment [7] it was > 30 µM; in experiment [8], > 30 µM; in experiment [9] it was > 10 µM.
Consider `CN(C)CCc1c[nH]c2ccc(C[C@H]3COC(=O)N3)cc12` [ZOLMITRIPTAN], for which the AC50 is > 30 µM in experiment [1], > 30 µM on Histamine H1 receptor and 14 µM in experiment [2].

One may read the AC50 as the concentration at which the activity in the assay is half-maximal. Read a high AC50 as activity only at high concentration.
